Results reported in patent US20230355646A1, “AUTOPHAGY ACTIVATOR” (Resonac Corporation, priority 2020, published 2023).

Legend:
LC3 gene = LC3 gene expression promoting effect in human senescent fibroblasts (quantitative real-time PCR); format: cell-based
Experimental: (§1) Normal human fibroblasts (NB1RGB, RIKEN BRC Cell Bank) were cultured until confluent in D-MEM medium (manufactured by Sigma-Aldrich) to which 10% fetal bovine serum (manufactured by MP Biomedicals) was added. Thereafter, the cells were treated with 250 μM aqueous hydrogen peroxide for 2 hours, and cultured for 24 hours in D-MEM medium to which fresh 10% fetal bovine serum was added. The treatment with aqueous hydrogen peroxide and the cell culture operation were repeated three times, and the obtained fibroblasts were used as senescent fibroblasts.
(§2) The prepared senescent fibroblasts were prepared at a seeding density of 10000 cells/cm^2 and cultured for 24 hours in D-MEM medium (manufactured by Sigma-Aldrich) to which 10% fetal bovine serum (manufactured by MP Biomedicals) was added. […]
(§3) Then, using Nucleospin (registered trademark) RNA kit (manufactured by Takara Bio Inc.), RNA was extracted from senescent fibroblasts or normal human fibroblasts in each example, and cDNA was synthesized from the obtained RNA. Next, using this cDNA as a template, by quantitative real-time PCR, the expression level of each gene was quantified using primers (manufactured by Takara Bio Inc.) specific to the LC3 gene, ATG5 gene, and ATG7 gene, respectively. […]

mTOR gene = mTOR gene expression suppression effect in human senescent fibroblasts (quantitative real-time PCR); format: cell-based
Experimental: as §1, §2
as §3, with “of mTOR” for “of each”, “to mTOR gene.” for “to the LC3 gene, ATG5 gene, and ATG7 gene, respectively.”

COc1ccc([C@@H]2CC(=O)c3c(O)cc(O[C@@H]4O[C@H](CO[C@@H]5O[C@@H](C)[C@H](O)[C@@H](O)[C@H]5O)[C@@H](O)[C@H](O)[C@H]4O)cc3O2)cc1O [Comparative Example 2, hesperidin]
Relative gene expression level LC3 (LC3 gene; 10^−2% (V/V) methyl hesperidin or hesperidin, additional ingredient where in the example, 24 hours, Comparative Example 1 (DMSO) = 1.00): <0
expression level of the LC3 gene (in words) (LC3 gene; compared to DMSO only of Comparative Example 1): more decreased
Relative gene expression level mTOR (mTOR gene; 10^−2% (V/V) methyl hesperidin or hesperidin, additional ingredient where in the example, 24 hours, Comparative Example 3 (DMSO) = 1.00): 1.16
expression level of mTOR gene (in words) (mTOR gene; compared to DMSO only of Comparative Example 3): almost the same
